Drawing on US20120121540A1 (priority 2007, published 2012), this text covers inhibition for 13 compounds.

For orientation: inhibition means the percentage by which the read-out fell short of the control.

The experiment can be described thus: HCV replicon assay (luciferase reporter, ET cell line). It is filed as cell-based. As to conditions: Hepatitis C virus, HCV replicon luciferase activity in ET cells. The procedure, abridged:
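ET cells carry a stable luciferase-ubiquitin-neo/NS3-5B subgenomic HCV replicon with adaptive mutations. Compounds (0.1 nM to […], 0.5% DMSO) were added 24 h after plating, and luciferase was read 48-72 h later. EC50 came from 10-point 2-fold dilutions fitted to a Hill equation; TC50 was measured in parallel by WST-1.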
A general note: A replicon is a self-replicating genome or part of one, used to study replication in cells.
`N#Cc1cc(-c2ccccc2)cn2c(Br)c(C(=O)NCc3cccs3)nc12` [Compound 362, 3-Bromo-8-cyano-6-phenyl-imidazo[1,2-a]pyridine-2-carboxylic Acid (thiophen-2-ylmethyl)amide] displayed an inhibition at 10 µM of 86.9%.

As for `O=C(NCc1ccccc1F)c1nc2c(C(F)(F)F)cc(-c3ccoc3)cn2c1Cl` [Compound 402, 3-Chloro-6-furan-3-yl-8-trifluoromethyl-imidazo[1,2-a]pyridine-2-carboxylic Acid-2-fluoro-benzylamide], at 10 µM the inhibition was 94.9%.

`O=C(c1nc2c(C(F)(F)F)cc(-c3ccoc3)cn2c1Cl)N1CCC(c2ccccn2)C1` (stereo not shown) [Compound 468, (3-Chloro-6-furan-3-yl-8-trifluoromethyl-imidazo[1,2-a]pyridin-2-yl)-(3-pyridin-2-yl-pyrrolidin-1-yl)-methanone] gave an inhibition at 10 µM of 93.9%.

Compound `COc1ccc(C2CCN(C(=O)c3nc4c(C(F)(F)F)cc(-c5ccoc5)cn4c3Cl)C2)cc1OC` (stereo not shown) [Compound 339, (3-Chloro-6-furan-3-yl-8-trifluoromethyl-imidazo[1,2-a]pyridin-2-yl)-[3-(3,4-dimethoxy-phenyl)-pyrrolidin-1-yl]-methanone] had an inhibition at 10 µM of 63%.

As to `O=C(c1nc2c(C(F)(F)F)cc(-c3ccoc3)cn2c1Cl)N1CCC(c2cccnc2)C1` (stereo not shown) [Compound 453, (3-Chloro-6-furan-3-yl-8-trifluoromethyl-imidazo[1,2-a]pyridin-2-yl)-(3-pyridin-3-yl-pyrrolidin-1-yl)-methanone], 10 µM produced 97.6% inhibition.

`O=C(NCc1nccs1)c1nc2c(C(F)(F)F)cc(-c3ccoc3)cn2c1Cl` [Compound 415, 3-Chloro-3-furan-3-yl-8-trifluomethyl-imidazo[1,2-a]-pyridine-2-carboxylic Acid (thiazol-2-ylmethyl)-amide] returned an inhibition at 10 µM of 92.6%.

`FC(F)(F)c1cc(-c2ccco2)cn2c(Cl)c(-c3nc(Cc4ccccc4)no3)nc12` [Compound 656, 2-(3-Benzyl-[1,2,4]oxadiazol-5-yl)-3-chloro-6-furan-2-yl-8-trifluoromethyl-imidazo[1,2-a]pyridine] displayed an inhibition at 10 µM of 34.1%.

`O=C(NCc1cccs1)c1cc2cc(-c3ccccc3)cc(Cl)c2[nH]1` [Compound 106, 7-Chloro-5-phenyl-1H-indole-2-carboxylic Acid (thiophen-2-ylmethyl)-amide] yielded an inhibition at 10 µM of 60.8%.

Consider `O=C(c1nc2c(C(F)(F)F)cc(-c3ccoc3)cn2c1Cl)N1CC(NS(=O)(=O)c2ccccc2F)C1` [Compound 494, N-[1-(3-Chloro-6-furan-3-yl-8-trifluoromethyl-imidazo[1,2-a]pyridine-2-carbonyl)-azetidin-3-yl]-2-fluoro-benzenesulfonamide], for which the inhibition at 10 µM is 88.5%.

In turn, `O=S(=O)(NCc1cn2cc(-c3ccoc3)cc(C(F)(F)F)c2n1)c1ccccc1` [Compound 395] showed an inhibition at 10 µM of 90.4%.

`CCN(CC)C(=O)c1ccccc1C1=CCN(C(=O)c2nc3c(C(F)(F)F)cc(-c4ccoc4)cn3c2Cl)CC1` [Compound 560, 2-[1-(3-Chloro-6-furan-3-yl-8-trifluoromethyl-imidazo[1,2-a]pyridine-2-carbonyl)-1,2,3,6-tetrahydro-pyridin-4-yl]-N,N-diethyl-benzamide] gave an inhibition at 10 µM of 80.9%.

Turning to `O=C(c1nc2c(C(F)(F)F)cc(-c3ccoc3)cn2c1Cl)N1CC=C(c2ccc(F)cc2)CC1` [Compound 595, (3-Chloro-6-furan-3-yl-8-trifluoromethyl-imidazo[1,2-a]pyridin-2-yl)-[4-(4-fluoro-phenyl)-3,6-dihydro-2H-pyridin-1-yl]-methanone], at 10 µM the inhibition was 77.2%.

As to `CS(=O)(=O)N[C@H]1CN(C(=O)c2nc3c(C(F)(F)F)cc(-c4ccoc4)cn3c2Cl)C[C@@H]1c1ccccc1` (stereo in doubt) [Compound 458, N-(-1-(3-Chloro-6-furan-3-yl-8-trifluoromethyl-imidazo[1,2-a]pyridine-2-carbonyl)-4-phenyl-pyrrolidin-3-yl)-methanesulfonamide], the inhibition at 10 µM came to 64.6%.
